Measurements taken from patent publication US12653887B2, “T cell manufacturing compositions and methods” (priority 2019, dated 2026).

What was measured:
[1] = test system: CD8+ naïve T cells; assay: CD8+ naïve T cell induction (protocol 1 / protocol 2), pMHC multimer flow cytometry; assay type: cell-based, human; conditions: for fraction of antigen specific CD8+ T cells (multimer): HD35
Method: • DC media (Cellgenix) • CD14 microbeads, human, Miltenyi #130-050-201 • Cytokines and/or growth factors • T cell media (AIM V+RPMI 1640 glutamax+serum+PenStrep) • Peptide stocks—1 mM per peptide (HIV A02—5-10 peptides, HIV B07—5-10 peptides, DOM—4-8 peptides, PIN—6-12 peptides) Procedure: Step 1: Monocyte Isolation for DC Prep • 1. Calculate the approximate number of PBMCs to thaw based on expected DC yield for each donor. • 2. Thaw PBMCs and resuspend at ˜1×10^6-1×10^8 cells/mL in DC media. • 3. Add benzonase (1:1000 dilution) and place in incubator with cap loosened. • 4. Perform CD14^+ monocyte enrichment according to manufacturer protocol. • 5. Plate enriched cells in 6-well plates at 1×10^5-1×10^7 per well in DC media with one or more cytokines and/or growth factors selected from GM-CSF, IL-4, FLT3L, TNF-α, IL-1β, PGE1, IL-6, IL-7, IFN-α, R848, LPS, ss-rna40, and polyI:C. Step 2: Peptide Loading and Maturation • 1. Count DCs and split the cells according to the experimental conditions in 15 mL tubes; 0.01-1 million cells per condition. • 2. Spin @1200 rpm for 5 min and resuspend in 50-400 μL DC medium. Add peptide(s) and place in incubator with loosened cap for 0.5-3 hrs. Volumes were calculated for peptide pools at a concentration of 1 mM per peptide. A volume of each separate pool of A02 (5 peptides) and B07 (5 peptides) was added per well for a final concentration of 0.001-100 μM per peptide. • 3. After 0.5-3 hrs. add 200 μL to 1.5 mL of DC media containing maturation mix and transfer the cells to 24 well plate. The maturation mix contains one or more cytokines selected from GM-CSF, IL-4, FLT3L, TNF-α, IL-1β, PGE1, IL-6, IL-7, IFN-α, R848, LPS, ss-rna40, and polyI:C. Step 3: Setting Up Long Term Stimulation (LTS) Experiment • 1. Carefully remove all media from the wells of the DC plates, transferring each well to a separate well in a 24-well deepwell block. • 2. Wash each well with 0.5-3 mL T cell media and combine with DC media in the deepwell block. • 3. Add 100 μL to 2 mL T cell media to each well. • 4. Spin down DCs at 1200 rpm for 5 min. • 5. Remove all supernatant, resuspend DCs in 100 μL to 2 mL T cell media and transfer back into the correct wells. • 6. Thaw PBMCs in T cell media and resuspend at 0.5×10^6-4×10^6 cells/mL in T cell media with IL-7 and IL-15. • 7. Add 0.5-3 mL of prepared PBMCs to each well. Step 4: Feeding LTS
• AIM V media (Invitrogen) • Media 1 (RPMI 1640 glutamax+serum+PenStrep) • Media 2 (AIM V+RPMI 1640 glutamax+serum+PenStrep) Procedure: • Step 1: Plate 4 million PBMCs in each well of 24 well plate with one or more cytokines in Media 2. The one or more cytokines are selected from GM-CSF, IL-4, FLT3L, TNF-α, IL-1β, PGE1, IL-6, IL-7, IFN-α, R848, LPS, ss-rna40, and polyI:C. • Step 2: Peptide loading and maturation in Media 2 • 1. Make stock peptide pool of interest (except for no peptide condition) at 0.001-100 μM for shortmers and 0.001-100 μM for longmers final concentration in respective wells and mix. • 2. Incubate for 0.5-3 hr. • 3. Make stock maturation cocktail and add to each well after incubation and mix. […]

[2] = test system: CD8+ T cells; assay: RNA nucleofection of differently prepared PBMCs, multimer assay; assay type: cell-based, human; conditions: for Hit Rate (%) / Mean Frequency: immunogen RNA (25 mer epitopes)
Method: In this experiment, PBMCs were variously treated for depletion of certain populations and their expansion and multimer specificity was investigated. Yield of multimer specific T cells was tested by nucleofecting three sets of PBMC preparations with RNA constructs: (i) CD25 depleted PBMCs, (ii) CD14 and CD25 depleted PBMCs, (iii) Frozen CD14 and CD25 depleted PBMCs. In preparation (i), T cells were not separated from the APCs during nucleofection like in preparation (ii) and (iii). These were compared with a set of PBMCs loaded with peptides. All cells were treated with FLT3L prior to electroporation. […] It could be possible that less handling of PBMCs before RNA loading step was advantageous. Depletion of multiple cell components in the PBMC population required subjecting the cell population to multiple antibodies, washing steps and recovery steps, which amounts to handling stress for the cells.
CD25 depleted PBMCs had detectable Gli3 specific CD8+ T cells, and ME1 specific CD8+ T cells. ME1 specific CD8+ T cells were negligible in all the other sets.

[3] = target: T1, HLA-A02:01 (Homo sapiens, UniProt P04439, D140Y/D185E/D98H/E176V/E277Q/G131W/G231S/I119V/I121R/I166T/I218V/L300P/L318F/N151K/N90K/P208A/P217A/Q86G/Q94H/R138H/R169H/T345S); assay: Epitope presentation after RNA electroporation of CD25 depleted PBMC, HLA immunoprecipitation and LC-MS/MS; assay type: cell-based; conditions: over 24 hours
T1 construct: endogenous in cells; host or cells: CD25 depleted PBMCs (donor cells)
Method: CD25 depleted PBMC cells were electroporated with RNA (depicted in FIG. 60C) and cultured over a period of 24 hours. Cells were harvested at the indicated times, pelleted and flash frozen. HLA-A02:01-peptide complexes were immunoprecipitated and then peptides were eluted and analyzed by LC-MS/MS. Peptide eluted from electroporated cells (Light) were compared to heavy labelled standard peptides (Heavy) for positive identification. (FIG. 63A).

[4] = Donor 1, starting material CD14-CD25- (Base Arm)
[5] = Donor 1, starting material CD14-CD25- (Frozen)
[6] = Donor 1, starting material PBMC (CD25−), IL-7 and IL-15
[7] = Donor 2, starting material CD14-CD25- (Base Arm)
[8] = Donor 2, starting material CD14-CD25- (Frozen)
[9] = Donor 2, starting material PBMC (CD25−), IL-7 and IL-15
[10] = Donor 2, starting material PBMC (CD25−)

| Substance | Hit Rate (%) [2, 4] [%] | Hit Rate (%) [2, 5] [%] | Hit Rate (%) [2, 6] [%] | Hit Rate (%) [2, 7] [%] | Hit Rate (%) [2, 8] [%] | Hit Rate (%) [2, 9] [%] | presentation of the epitope by HLA-A02:01 after RNA electroporation [3] | Mean Frequency [2, 7] [%] | Mean Frequency [2, 8] [%] | Mean Frequency [2, 10] [%] | further results |
| --- | --- | --- | --- | --- | --- | --- | --- | --- | --- | --- | --- |
| ACTN4: previously identified neoantigen (PIN) short peptide; also encoded in RNA (FIASNGVKLV) | 0 | 0 | 0 | 0 | 0 | 0 | expressed readily as dominant epitopes | – | – | – | fraction of antigen specific CD8+ T cells (multimer) ([1]; Prot. 2 (CD25 depleted), day 26, confirmation): 0.095%; fraction of antigen specific CD8+ T cells (multimer) ([1]; Prot. 2 (CD25 depleted), day 26, initial): 0.376% |
| CDK4: CDK4 epitope encoded in the RNA (25 mer epitopes) construct (ACDPHSGHFV) | 0 | 0 | 0 | 0 | 0 | 0 | expressed readily as dominant epitopes | – | – | – | – |
| Gli3: Gli3 epitope encoded in the RNA (25 mer epitopes) construct (RLIPGIPTV) | 100 | 100 | 83 | 100 | 67 | 83 | expressed readily as dominant epitopes | 0.79 | 0.12 | 2.68 | Mean Frequency [2, 4]: 0.98%; Mean Frequency [2, 5]: 0.52%; Mean Frequency ([2]; Donor 1, starting material PBMC (CD25−)): 6.09%; increase in multimer positive cells, RNA transfected versus peptide loaded PBMCs ([2]; FIG. 61B): greater than 10 fold |
| ME-1: previously identified neoantigen (PIN) short peptide; also encoded in RNA (FLDEFMEGV) | 0 | 0 | 0 | 83 | 0 | 67 | expressed readily as dominant epitopes | 0.01 | 0.01 | 2.97 | fraction of antigen specific CD8+ T cells (multimer) ([1]; Prot. 2 (bulk), day 19, confirmation): 0.927%; fraction of antigen specific CD8+ T cells (multimer) ([1]; Prot. 2 (bulk), day 19, initial): 4.15%; fraction of antigen specific CD8+ T cells (multimer) ([1]; Prot. 2 (bulk), day 26, confirmation): 2.34%; fraction of antigen specific CD8+ T cells (multimer) ([1]; Prot. 2 (bulk), day 26, initial): 12.6%; CD8+ T cells specific to the peptide ([1]; protocol 2, after a long induction): 12.6% |
